Laboratory results as given in paper PMC7928264 (Journal of pharmacy & pharmaceutical sciences : a …, 2014).
Where a name gives a salt, the structure may show the parent alone. Read-outs that look alike come from different tables or passages of the source.

Columns and labels:
[1] = test system: OATPs; assay: OATPs inhibition study with rifampicin on tacrine cellular accumulation; assay type: in vitro ADME, rat; conditions: data not shown
[2] = test system: OCTs; conditions: for Inhibition of tacrine uptake vs untreated control: 30 min pre-incubation, 1 μM tacrine 5 min, SCHs day 1
[3] = test system: P-gp; conditions: 5 μM valspodar, 1 μM tacrine, 10 min, SCHs day 4
[4] = test system: hepatic transaminase; conditions: human, in vivo; cited from earlier work
[5] = test system: sandwich-cultured primary rat hepatocytes (SCHs); conditions: 5 min, 1 μM
[6] = test system: sandwich-cultured primary rat hepatocytes (SCHs); conditions: 1 μM
[7] = human, in vivo; cited from earlier work
[8] = test system: sandwich-cultured primary rat hepatocytes (SCHs)

CO[C@H]1/C=C/O[C@@]2(C)Oc3c(C)c(O)c4c(O)c(c(/C=N/N5CCN(C)CC5)c(O)c4c3C2=O)NC(=O)/C(C)=C\C=C\[C@H](C)[C@H](O)[C@@H](C)[C@@H](O)[C@@H](C)[C@H](OC(C)=O)[C@@H]1C [rifampicin]
Effect on tacrine cellular accumulation [1]: did not alter tacrine cellular accumulation

CN/C(=N/CCSCc1nc[nH]c1C)NC#N [cimetidine]
Inhibition of tacrine uptake vs untreated control ([2]; inhibitor 300 μM): > 50%

CC[N+](CC)(CC)CC [TEA, tetraethylammonium chloride]
Inhibition of tacrine uptake vs untreated control ([2]; inhibitor 300 μM): ~ 18%

COCCCC/C(=N\OCCN)c1ccc(C(F)(F)F)cc1 [fluvoxamine, Fluvoxamine maleate]
Inhibition of tacrine uptake vs untreated control ([2]; inhibitor 50 μM): > 50%

C/C=C/C[C@@H](C)C(=O)[C@H]1C(=O)N[C@@H](C(C)C)C(=O)N(C)CC(=O)N(C)[C@@H](CC(C)C)C(=O)N[C@@H](C(C)C)C(=O)N(C)[C@@H](CC(C)C)C(=O)N[C@@H](C)C(=O)N[C@H](C)C(=O)N(C)[C@@H](CC(C)C)C(=O)N(C)[C@@H](CC(C)C)C(=O)N(C)[C@@H](C(C)C)C(=O)N1C [valspodar]
Reduction of tacrine BEI% [3]: approximately 60%

Nc1c2c(nc3ccccc13)CCCC2 [tacrine, 9-amino-1,2,3,4-tetrahydroacridine]
Patients with significantly elevated hepatic transaminase concentrations [4]: 25%
Average uptake ([5]; pH 6.4): 68±4 pmol/min/mg protein
Decrease in uptake compared to neutral pH (7.4) ([5]; pH 6.4): approximately 3 fold
Average uptake ([5]; pH 7.4): 405±16 pmol/min/mg protein
Average uptake ([5]; pH 8.4): 816±62 pmol/min/mg protein
Increase in uptake compared to neutral pH (7.4) ([5]; pH 8.6): ~2 fold
Time of maximum biliary excretion [6]: 10 min
BEI% ([6]; 10 min): 22.9±1.9%
Oral bioavailability [7]: 17–24%
Time at which uptake reaches a plateau ([8]; 1 μM tacrine, SCHs day 1): 10 min
Uptake Vmax ([8]; SCHs, day 1, saturable uptake (37°C minus 4°C), tacrine 0.1–500 μM): 908±72 pmol/min/mg protein

COc1ccc(CCN(C)CCCC(C#N)(c2ccc(OC)c(OC)c2)C(C)C)cc1OC (stereo not shown) [verapamil, verapamil hydrochloride]
Inhibition of tacrine uptake vs untreated control ([2]; inhibitor 50 μM): > 50%
Concentration giving maximal inhibition of tacrine uptake ([2]; verapamil tested at 10, 50 and 100 μM, concentration-dependent, P<0.001): 100 µM
Reduction in tacrine uptake ([2]; verapamil, concentration not given, SCHs): 3 fold
